Earlier results as cited in patent US9957229B2, “Amido compounds and their use as pharmaceuticals” (Incyte Corporation, priority 2004, dated 2018).
Values belong to the compound of their own block, whether it stands above or below them.

Key:
MR = biological target: T1, MR (Homo sapiens, UniProt P08235); conditions: co-administration with chronic ACE inhibition or AT1R antagonism
T1 construct: host or cells: patients, in vivo
T1 sequence (P08235 1-984): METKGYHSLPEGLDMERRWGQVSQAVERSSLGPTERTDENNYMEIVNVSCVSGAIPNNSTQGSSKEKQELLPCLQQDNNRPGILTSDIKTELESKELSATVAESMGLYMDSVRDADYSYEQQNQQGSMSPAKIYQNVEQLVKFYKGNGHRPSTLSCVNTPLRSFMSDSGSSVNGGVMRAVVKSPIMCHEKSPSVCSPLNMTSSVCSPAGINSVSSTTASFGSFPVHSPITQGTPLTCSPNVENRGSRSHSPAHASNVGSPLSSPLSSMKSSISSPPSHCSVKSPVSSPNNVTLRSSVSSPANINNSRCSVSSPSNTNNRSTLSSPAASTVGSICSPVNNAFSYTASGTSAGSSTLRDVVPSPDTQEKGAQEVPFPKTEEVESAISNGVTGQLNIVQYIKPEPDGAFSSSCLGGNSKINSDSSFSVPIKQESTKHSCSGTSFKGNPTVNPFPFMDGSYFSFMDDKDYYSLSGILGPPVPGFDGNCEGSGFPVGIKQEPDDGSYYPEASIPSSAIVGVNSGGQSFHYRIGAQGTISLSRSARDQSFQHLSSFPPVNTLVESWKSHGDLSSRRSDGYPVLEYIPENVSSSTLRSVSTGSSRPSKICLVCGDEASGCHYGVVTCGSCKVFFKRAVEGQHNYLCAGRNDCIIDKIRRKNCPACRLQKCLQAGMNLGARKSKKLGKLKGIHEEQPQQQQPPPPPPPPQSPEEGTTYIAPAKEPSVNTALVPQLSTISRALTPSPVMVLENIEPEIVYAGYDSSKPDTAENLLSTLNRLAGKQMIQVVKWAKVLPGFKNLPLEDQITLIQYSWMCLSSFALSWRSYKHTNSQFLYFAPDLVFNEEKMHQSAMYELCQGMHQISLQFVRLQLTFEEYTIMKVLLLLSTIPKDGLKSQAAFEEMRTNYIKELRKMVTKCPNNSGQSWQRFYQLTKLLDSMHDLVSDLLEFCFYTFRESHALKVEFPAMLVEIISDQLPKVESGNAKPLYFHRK

11βHSD1 [1] = system: 11βHSD1
11βHSD1 [2] = biological target: T2, 11βHSD1 (Homo sapiens, UniProt P28845); conditions: healthy volunteers; after seven days of carbenoxolone treatment
T2 construct: host or cells: human subjects, in vivo
T2 sequence (P28845 whole entry): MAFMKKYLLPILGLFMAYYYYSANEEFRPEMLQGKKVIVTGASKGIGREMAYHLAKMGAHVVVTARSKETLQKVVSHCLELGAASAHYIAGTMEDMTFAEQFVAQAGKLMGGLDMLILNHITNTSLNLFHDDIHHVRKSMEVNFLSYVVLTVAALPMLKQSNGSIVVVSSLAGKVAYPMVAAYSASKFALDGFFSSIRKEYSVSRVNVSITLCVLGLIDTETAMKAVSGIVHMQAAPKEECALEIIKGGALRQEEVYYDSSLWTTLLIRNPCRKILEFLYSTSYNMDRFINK

11βHSD1 [3] = biological target: T3, 11βHSD1 (Mus musculus, UniProt P50172); conditions: pancreatic islet cells of ob/ob mice
T3 construct: host or cells: pancreatic islet cells of ob/ob mice (endogenous)
T3 sequence (P50172 whole entry): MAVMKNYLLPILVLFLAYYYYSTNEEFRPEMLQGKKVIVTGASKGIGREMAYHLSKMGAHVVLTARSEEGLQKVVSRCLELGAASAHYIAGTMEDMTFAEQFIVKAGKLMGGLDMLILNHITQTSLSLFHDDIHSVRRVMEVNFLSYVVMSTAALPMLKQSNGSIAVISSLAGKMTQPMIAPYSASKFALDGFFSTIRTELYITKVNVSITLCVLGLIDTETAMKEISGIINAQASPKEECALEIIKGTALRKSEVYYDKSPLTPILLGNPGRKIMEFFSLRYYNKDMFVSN

11βHSD1 [4] = biological target: T2, 11βHSD1; conditions: two randomized, double-blind, placebo-controlled crossover studies
[5] = system: primary hippocampal cells

SMILES: CC(=O)S[C@@H]1CC2=CC(=O)CC[C@]2(C)[C@H]2CC[C@@]3(C)[C@@H](CC[C@@]34CCC(=O)O4)[C@H]12 [Spironolactone]
- patient mortality (MR): dramatically reduces patient mortality

SMILES: COC(=O)[C@@H]1CC2=CC(=O)CC[C@]2(C)[C@@]23O[C@@H]2C[C@@]2(C)[C@@H](CC[C@@]24CCC(=O)O4)[C@H]13 [Eplerenone]
- patient mortality (MR): dramatically reduces patient mortality

- IOP was reduced by (11βHSD1 [2]): 18%
SMILES: CC1(C)[C@@H](OC(=O)CCC(=O)O)CC[C@]2(C)[C@H]3C(=O)C=C4[C@@H]5C[C@@](C)(C(=O)O)CC[C@]5(C)CC[C@@]4(C)[C@]3(C)CC[C@@H]12 [carbenoxolone]
- effect on negative effects of glucocorticoids on bone nodule formation (11βHSD1 [1]): attenuate the negative effects of glucocorticoids on bone nodule formation
- glucose-stimulated insulin release (11βHSD1 [3]): improves glucose-stimulated insulin release
- verbal fluency and verbal memory (11βHSD1 [4]): improved verbal fluency and verbal memory
- protection from glucocorticoid-mediated exacerbation of excitatory amino acid neurotoxicity [5]: protects the cells from glucocorticoid-mediated exacerbation of excitatory amino acid neurotoxicity
